Measured values taken from the NIST ThermoML archive (doi:10.1016/j.jct.2012.06.012).

Test: xn = mol fraction of the nth substance listed
Details: Liquid, Vibrating tube method

CCCCCCCCCC [decane] + CCO
Details	mass density [kg/m3]
332.86 K, 16000 kPa, x2 = 0.0937	713.17
332.86 K, 16000 kPa, x2 = 0.9014	751.15
332.86 K, 17000 kPa, x2 = 0.0937	714.01
332.86 K, 17000 kPa, x2 = 0.9014	752.07
332.86 K, 18000 kPa, x2 = 0.0937	714.82
332.86 K, 18000 kPa, x2 = 0.9014	752.96
332.86 K, 19000 kPa, x2 = 0.0937	715.64
332.86 K, 19000 kPa, x2 = 0.9014	753.84
332.86 K, 20000 kPa, x2 = 0.0937	716.42
332.86 K, 20000 kPa, x2 = 0.9014	754.71
332.87 K, 1000 kPa, x2 = 0.1011	699.31
332.87 K, 1000 kPa, x2 = 0.4963	707.52
332.87 K, 2000 kPa, x2 = 0.1011	700.32
332.87 K, 2000 kPa, x2 = 0.4963	708.54
332.87 K, 3000 kPa, x2 = 0.1011	701.31
332.87 K, 3000 kPa, x2 = 0.4963	709.55
332.87 K, 4000 kPa, x2 = 0.1011	702.29
332.87 K, 4000 kPa, x2 = 0.4963	710.55
332.87 K, 5000 kPa, x2 = 0.1011	703.26
332.87 K, 5000 kPa, x2 = 0.4963	711.53
332.87 K, 6000 kPa, x2 = 0.1011	704.21
332.87 K, 6000 kPa, x2 = 0.4963	712.5
332.87 K, 7000 kPa, x2 = 0.1011	705.15
332.87 K, 7000 kPa, x2 = 0.4963	713.48
332.87 K, 8000 kPa, x2 = 0.1011	706.08
332.87 K, 8000 kPa, x2 = 0.4963	714.46
332.87 K, 9000 kPa, x2 = 0.1011	707
332.87 K, 9000 kPa, x2 = 0.4963	715.43
332.87 K, 10000 kPa, x2 = 0.1011	707.91
332.87 K, 10000 kPa, x2 = 0.4963	716.38
332.87 K, 11000 kPa, x2 = 0.1011	708.83
332.87 K, 11000 kPa, x2 = 0.4963	717.33
332.87 K, 12000 kPa, x2 = 0.1011	709.73
332.87 K, 12000 kPa, x2 = 0.4963	718.27
332.87 K, 13000 kPa, x2 = 0.1011	710.62
332.87 K, 13000 kPa, x2 = 0.4963	719.21
332.87 K, 14000 kPa, x2 = 0.1011	711.51
332.87 K, 14000 kPa, x2 = 0.4963	720.13
332.87 K, 15000 kPa, x2 = 0.1011	712.38
332.87 K, 15000 kPa, x2 = 0.4963	721.03
332.87 K, 16000 kPa, x2 = 0.1011	713.23
332.87 K, 16000 kPa, x2 = 0.4963	721.92
332.87 K, 17000 kPa, x2 = 0.1011	714.07
332.87 K, 17000 kPa, x2 = 0.4963	722.8
332.87 K, 18000 kPa, x2 = 0.1011	714.88
332.87 K, 18000 kPa, x2 = 0.4963	723.66
332.87 K, 19000 kPa, x2 = 0.1011	715.69
332.87 K, 19000 kPa, x2 = 0.4963	724.5
332.87 K, 20000 kPa, x2 = 0.1011	716.47
332.87 K, 20000 kPa, x2 = 0.4963	725.32
332.91 K, 1000 kPa, x2 = 0.7526	720.88
332.91 K, 2000 kPa, x2 = 0.7526	721.93
332.91 K, 3000 kPa, x2 = 0.7526	722.96
332.91 K, 4000 kPa, x2 = 0.7526	723.98
332.91 K, 5000 kPa, x2 = 0.7526	725
332.91 K, 6000 kPa, x2 = 0.7526	726.01
332.91 K, 7000 kPa, x2 = 0.7526	727.02
332.91 K, 8000 kPa, x2 = 0.7526	728.03
332.91 K, 9000 kPa, x2 = 0.7526	729.03
332.91 K, 10000 kPa, x2 = 0.7526	729.99
332.91 K, 11000 kPa, x2 = 0.7526	730.98
332.91 K, 12000 kPa, x2 = 0.7526	731.94
332.91 K, 13000 kPa, x2 = 0.7526	732.91
332.91 K, 14000 kPa, x2 = 0.7526	733.85
332.91 K, 15000 kPa, x2 = 0.7526	734.78
332.91 K, 16000 kPa, x2 = 0.7526	735.69
332.91 K, 17000 kPa, x2 = 0.7526	736.6
332.91 K, 18000 kPa, x2 = 0.7526	737.48
332.91 K, 19000 kPa, x2 = 0.7526	738.35
332.91 K, 20000 kPa, x2 = 0.7526	739.19
332.97 K, 1000 kPa, x2 = 0.2507	701.45
332.97 K, 2000 kPa, x2 = 0.2507	702.46
332.97 K, 3000 kPa, x2 = 0.2507	703.46
332.97 K, 4000 kPa, x2 = 0.2507	704.44
332.97 K, 5000 kPa, x2 = 0.2507	705.41
332.97 K, 6000 kPa, x2 = 0.2507	706.36
332.97 K, 7000 kPa, x2 = 0.2507	707.31
332.97 K, 8000 kPa, x2 = 0.2507	708.26
332.97 K, 9000 kPa, x2 = 0.2507	709.21
332.97 K, 10000 kPa, x2 = 0.2507	710.12
332.97 K, 11000 kPa, x2 = 0.2507	711.06
332.97 K, 12000 kPa, x2 = 0.2507	711.97
332.97 K, 13000 kPa, x2 = 0.2507	712.88
332.97 K, 14000 kPa, x2 = 0.2507	713.78
332.97 K, 15000 kPa, x2 = 0.2507	714.65
332.97 K, 16000 kPa, x2 = 0.2507	715.53
332.97 K, 17000 kPa, x2 = 0.2507	716.38
332.97 K, 18000 kPa, x2 = 0.2507	717.21
332.97 K, 19000 kPa, x2 = 0.2507	718.03
332.97 K, 20000 kPa, x2 = 0.2507	718.82
